Test results as given in patent US20120202856A1, “SUBSTITUTED BENZIMDAZOLE DERIVATIVES USEFUL AS TRPM8 RECEPTOR MODULATORS” (priority 2011, published 2012).
Several values for one entry are separate records, joined by “and”; a condition that tells them apart may be missing. Equal values may be shown once. Where a name gives a salt, the structure may show the parent alone. Read-outs that look alike come from different tables or passages of the source.

Biological target: T1, canine TRPM8 (Canis lupus familiaris, UniProt Q1A7N1)
T1 construct: expressed in transfected cells
Test: In Vitro Canine TRPM8 Functional Assay (intracellular Ca2+ fluorescence, icilin activation, HEK293 cells)
Assay type: cell-based
Conditions: for IC50: HEK293 cells expressing canine TRPM8, icilin activation, individually measured values (batches/salt forms), read-out: IC50 (nM), in vitro TRP M8 Activity
Method: The changes in fluorescent signal were monitored by a fluorescence plate reader, either a FLIPR™ (Molecular Devices) or FDSS (Hamamatsu). […] Cells were maintained in 5% CO2 at 37° C. At 24 hr prior to assay, cells were seeded in black wall, clear-base poly-D-lysine coated 384-well plates (BD Biosciences, NJ, USA) at a density of 5,000 cells per well in culture medium and grown overnight in 5% CO2 at 37° C. On assay day, growth media was removed, and cells were loaded with Calcium 3 Dye (Molecular Devices) for 35 min at 37° C., under 5% CO2 and then incubated for 25 min at room temperature and atmosphere. Subsequently, cells were tested for agonist-induced increases in intracellular Ca^2+ levels using FLIPR™ or FDSS. […] Maximal fluorescence intensity (FI) achieved upon addition of icilin was exported from the FLIPR™ or FDSS software and further analyzed using GraphPad Prism 3.02 (Graph Pad Software Inc., CA, U.S.A.). Basal FI was subtracted prior to normalizing data to percent of maximal response. Curves were generated using the average of quadruplicate wells for each data point using nonlinear regression of either sigmoidal dose response or sigmoidal dose response (variable slope). Finally, IC50 values were calculated with the best-fit curve determined by GraphPad Prism

[1] = HEK293, 0.2 μM test compound, individually measured values, read-out: % Inh (%) @0.2 μM, in vitro TRP M8 Activity
[2] = HEK293, read-out: % Inh (%) @0.2 μM, in vitro TRP M8 Activity, 0.2 μM test compound, individually measured values

T1 sequence (Q1A7N1 1-1104): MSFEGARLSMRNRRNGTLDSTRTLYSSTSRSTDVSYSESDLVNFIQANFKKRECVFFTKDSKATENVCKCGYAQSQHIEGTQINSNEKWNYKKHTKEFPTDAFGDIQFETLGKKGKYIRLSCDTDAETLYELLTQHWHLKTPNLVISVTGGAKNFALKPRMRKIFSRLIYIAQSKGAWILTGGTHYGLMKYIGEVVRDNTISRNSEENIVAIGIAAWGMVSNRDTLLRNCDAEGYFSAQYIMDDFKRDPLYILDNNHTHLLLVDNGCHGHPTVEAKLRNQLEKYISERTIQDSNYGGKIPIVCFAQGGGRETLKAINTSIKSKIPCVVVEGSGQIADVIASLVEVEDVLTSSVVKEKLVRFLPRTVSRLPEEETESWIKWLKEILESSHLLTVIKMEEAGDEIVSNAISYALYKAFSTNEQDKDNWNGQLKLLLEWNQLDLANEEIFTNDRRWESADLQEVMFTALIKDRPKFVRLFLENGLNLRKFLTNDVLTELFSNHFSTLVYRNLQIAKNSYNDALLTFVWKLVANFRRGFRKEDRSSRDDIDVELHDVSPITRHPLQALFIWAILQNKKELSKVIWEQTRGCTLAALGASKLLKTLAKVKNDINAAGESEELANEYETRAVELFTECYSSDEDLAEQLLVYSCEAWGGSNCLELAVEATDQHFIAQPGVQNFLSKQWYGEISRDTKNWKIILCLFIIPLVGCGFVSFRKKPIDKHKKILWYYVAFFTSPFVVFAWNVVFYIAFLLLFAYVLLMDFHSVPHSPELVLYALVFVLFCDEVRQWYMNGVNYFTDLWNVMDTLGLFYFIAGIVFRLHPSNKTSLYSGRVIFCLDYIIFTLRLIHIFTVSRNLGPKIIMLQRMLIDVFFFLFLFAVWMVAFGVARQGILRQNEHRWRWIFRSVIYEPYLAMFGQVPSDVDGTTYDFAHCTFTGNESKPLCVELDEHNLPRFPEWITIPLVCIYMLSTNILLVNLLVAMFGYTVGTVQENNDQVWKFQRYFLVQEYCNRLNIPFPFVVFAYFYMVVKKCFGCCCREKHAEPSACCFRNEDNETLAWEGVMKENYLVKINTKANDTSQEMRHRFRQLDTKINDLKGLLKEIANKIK

Structure (SMILES)	IC50	% Inh (%) @0.2 μM, in vitro TRP M8 Activity (0.2 μM test compound, individually measured values, sodium salt, 0.2 µM) [%]	inhibition at 0.2 µM [1] [%]	inhibition at 0.2 µM [2] [%]
CC(C)(C)c1cc(-c2nc3cc(-c4ccccc4C(F)(F)F)ccc3[nH]2)n(CCO)n1 [Compound 102, 2-{3-tert-Butyl-5-[5-(2-trifluoromethylphenyl)-1H-benzimidazol-2-yl]-pyrazol-1-yl}-ethanol hydrochloride]	54.4 nM	–	–	–
CC(C)(C)c1cc(-c2nc3cc(-c4c(F)cccc4OC(F)(F)F)ccc3[nH]2)on1 [Compound 103, 2-(3-tert-Butyl-isoxazol-5-yl)-5-(2-fluoro-6-trifluoromethoxy-phenyl)-1H-benzimidazole hydrochloride]	4.5 nM	–	–	–
CC(C)(C)c1cc(-c2nc3cc(-c4c(C(F)(F)F)cccc4C(F)(F)F)ccc3[nH]2)on1 [Compound 104, 5-(2,6-Bis-trifluoromethyl-phenyl)-2-(3-tert-butyl-isoxazol-5-yl)-1H-benzimidazole hydrochloride]	3.9 nM	–	–	–
COc1ccc(F)cc1-c1ccc2[nH]c(-c3cc(C(C)(C)C)no3)nc2c1 [Compound 105, 2-(3-tert-Butyl-isoxazol-5-yl)-5-(5-fluoro-2-methoxy-phenyl)-1H-benzimidazole hydrochloride]	16.4 nM	–	–	–
Cc1c(C(C)(C)C)noc1-c1nc2cc(-c3ccccc3F)ccc2[nH]1 [Compound 106, 2-(3-tert-Butyl-4-methyl-isoxazol-5-yl)-5-(2-fluoro-phenyl)-1H-benzimidazole hydrochloride]	21.8 nM	–	–	–
Cc1c(C(C)(C)C)noc1-c1nc2cc(-c3ccccc3C(F)(F)F)ccc2[nH]1 [Compound 108, 2-(3-tert-Butyl-4-methyl-isoxazol-5-yl)-5-(2-trifluoromethyl-phenyl)-1H-benzimidazole hydrochloride]	10.2 nM	–	–	–
Cc1c(C(C)(C)C)noc1-c1nc2cc(-c3c(F)cccc3F)ccc2[nH]1 [Compound 109, 2-(3-tert-Butyl-4-methyl-isoxazol-5-yl)-5-(2,6-difluoro-phenyl)-1H-benzimidazole hydrochloride]	13.9 nM	–	–	–
Cc1c(C(C)(C)C)noc1-c1nc2cc(-c3c(F)cccc3OC(F)(F)F)ccc2[nH]1 [Compound 110, 2-(3-tert-Butyl-4-methyl-isoxazol-5-yl)-5-(2-fluoro-6-trifluoromethoxy-phenyl)-1H-benzimidazole hydrochloride]	14.3 nM	–	–	–
Cc1c(C(C)(C)C)noc1-c1nc2cc(-c3c(F)cccc3C(F)(F)F)ccc2[nH]1 [Compound 111, 2-(3-tert-Butyl-4-methyl-isoxazol-5-yl)-5-(2-fluoro-6-trifluoromethyl-phenyl)-1H-benzimidazole hydrochloride]	10.1 nM	–	–	–
Cc1c(C(C)(C)C)nn(C)c1-c1nc2cc(-c3c(F)cccc3C(F)(F)F)cc(C(F)(F)F)c2[nH]1 [Compound 119, 2-(5-tert-Butyl-2,4-dimethyl-2H-pyrazol-3-yl)-5-(2-fluoro-6-trifluoromethyl-phenyl)-7-trifluoromethyl-1H-benzimidazole hydrochloride]	2 nM	–	–	–
Cc1c(C(C)(C)C)nn(C)c1-c1nc2cc(-c3c(F)cccc3F)cc(C(F)(F)F)c2[nH]1 [Compound 122, 2-(5-tert-Butyl-2,4-dimethyl-2H-pyrazol-3-yl)-5-(2,6-difluoro-phenyl)-7-trifluoromethyl-1H-benzimidazole hydrochloride]	5.5 nM	–	–	–
Cc1c(C(C)(C)C)nn(C)c1-c1nc2cc(-c3c(F)cccc3OC(F)(F)F)cc(C(F)(F)F)c2[nH]1 [Compound 123, 2-(5-tert-Butyl-2,4-dimethyl-2H-pyrazol-3-yl)-5-(2-fluoro-6-trifluoromethoxy-phenyl)-7-trifluoromethyl-1H-benzimidazole hydrochloride]	7.9 nM	–	–	–
Cn1nc(C(C)(C)C)c(Cl)c1-c1nc2cc(-c3c(F)cccc3F)cc(C(F)(F)F)c2[nH]1 [Compound 124, 2-(5-tert-Butyl-4-chloro-2-methyl-2H-pyrazol-3-yl)-5-(2,6-difluoro-phenyl)-7-trifluoromethyl-1H-benzimidazole hydrochloride]	7.3 nM and 4.4 nM	–	99	–
Cn1nc(C(C)(C)C)c(Cl)c1-c1nc2cc(-c3c(F)cccc3OC(F)(F)F)cc(C(F)(F)F)c2[nH]1 [Compound 126, 2-(5-tert-Butyl-4-chloro-2-methyl-2H-pyrazol-3-yl)-5-(2-fluoro-6-trifluoromethoxy-phenyl)-7-trifluoromethyl-1H-benzimidazole hydrochloride]	3.9 nM and 3.5 nM	–	99	–
Cn1nc2c(c1-c1nc3cc(-c4ccccc4F)ccc3[nH]1)CCC2(C)C [Compound 131]	42 nM	–	100	–
CC(C)(C)c1cc(-c2nc3cc(-c4ccccc4F)cc(C(F)(F)F)c3[nH]2)on1 [Compound 139, 2-(3-tert-Butyl-isoxazol-5-yl)-5-(2-fluoro-phenyl)-7-trifluoromethyl-1H-benzimidazole sodium salt]	5.6 nM and 12 nM	–	–	99
CC(C)(C)c1cc(-c2nc3cc(-c4c(F)cccc4F)cc(C(F)(F)F)c3[nH]2)on1 [Compound 140, 2-(3-tert-Butyl-isoxazol-5-yl)-5-(2,6-difluoro-phenyl)-7-trifluoromethyl-1H-benzimidazole sodium salt]	4.5 nM and 7.4 nM	–	–	100

More lines, main results first:

IC50	% Inh (%) @0.2 μM, in vitro TRP M8 Activity (0.2 μM test compound, individually measured values, sodium salt, 0.2 µM) [%]	inhibition at 0.2 µM [1] [%]	Structure (SMILES)	inhibition at 0.2 µM [2] [%]
11.9 nM	–	–	Cc1c(C(C)(C)C)noc1-c1nc2cc(-c3ccccc3Cl)ccc2[nH]1 [Compound 107, 2-(3-tert-Butyl-4-methyl-isoxazol-5-yl)-5-(2-chloro-phenyl)-1H-benzimidazole hydrochloride]	–
4.7 nM and 10.3 nM and 10.2 nM	100	99	Cl.Cn1nc(C(C)(C)C)c(Cl)c1-c1nc2cc(-c3ccccc3F)cc(Cl)c2[nH]1 [Compound 114, 2-(5-tert-Butyl-4-chloro-2-methyl-2H-pyrazol-3-yl)-7-chloro-5-(2-fluoro-phenyl)-1H-benzimidazole sodium salt]	–
9.6 nM	–	–	Cc1c(C(C)(C)C)nn(C)c1-c1nc2cc(-c3ccccc3F)cc(C(F)(F)F)c2[nH]1 [Compound 118, 2-(5-tert-Butyl-2,4-dimethyl-2H-pyrazol-3-yl)-5-(2-fluoro-phenyl)-7-trifluoromethyl-1H-benzimidazole hydrochloride]	–
3.1 nM	–	–	Cc1c(C(C)(C)C)nn(C)c1-c1nc2cc(-c3ccccc3Cl)cc(C(F)(F)F)c2[nH]1 [Compound 121, 2-(5-tert-Butyl-2,4-dimethyl-2H-pyrazol-3-yl)-5-(2-chloro-phenyl)-7-trifluoromethyl-1H-benzimidazole hydrochloride]	–
11.5 nM and 6.3 nM	–	99	Cn1nc(C(C)(C)C)c(Cl)c1-c1nc2cc(-c3ccccc3F)cc(C(F)(F)F)c2[nH]1 [Compound 127, 2-(5-tert-Butyl-4-chloro-2-methyl-2H-pyrazol-3-yl)-5-(2-fluoro-phenyl)-7-trifluoromethyl-1H-benzimidazole hydrochloride]	–
2.7 nM and 5.1 nM	–	99	Cn1nc(C(C)(C)C)c(Cl)c1-c1nc2cc(-c3ccccc3Cl)cc(C(F)(F)F)c2[nH]1 [Compound 128, 2-(5-tert-Butyl-4-chloro-2-methyl-2H-pyrazol-3-yl)-5-(2-chloro-phenyl)-7-trifluoromethyl-1H-benzimidazole sodium salt]	–
6.2 nM and 4.1 nM	–	99	Cn1nc(C(C)(C)C)c(Cl)c1-c1nc2cc(-c3ccccc3C(F)(F)F)cc(C(F)(F)F)c2[nH]1 [Compound 129, 2-(5-tert-Butyl-4-chloro-2-methyl-2H-pyrazol-3-yl)-7-trifluoromethyl-5-(2-trifluoromethyl-phenyl)-1H-benzimidazole hydrochloride]	–
5.6 nM and 10.9 nM	–	99	Cc1c(C(C)(C)C)nn(C)c1-c1nc2cc(-c3ccccc3Cl)cc(Cl)c2[nH]1 [Compound 134, 2-(5-tert-Butyl-2,4-dimethyl-2H-pyrazol-3-yl)-7-chloro-5-(2-chloro-phenyl)-1H-benzimidazole hydrochloride]	–
4 nM and 6.9 nM	–	99	Cc1c(C(C)(C)C)nn(C)c1-c1nc2cc(-c3ccccc3C(F)(F)F)cc(Cl)c2[nH]1 [Compound 135, 2-(5-tert-Butyl-2,4-dimethyl-2H-pyrazol-3-yl)-7-chloro-5-(2-trifluoromethyl-phenyl)-1H-benzimidazole hydrochloride]	–
3 nM and 4.7 nM	–	99	Cc1c(C(C)(C)C)nn(C)c1-c1nc2cc(-c3c(F)cccc3C(F)(F)F)cc(Cl)c2[nH]1 [Compound 137, 2-(5-tert-Butyl-2,4-dimethyl-2H-pyrazol-3-yl)-7-chloro-5-(2-fluoro-6-trifluoromethyl-phenyl)-1H-benzimidazole hydrochloride]	–
7.7 nM and 6.8 nM	–	99	Cc1c(C(C)(C)C)nn(C)c1-c1nc2cc(-c3c(F)cccc3OC(F)(F)F)cc(Cl)c2[nH]1 [Compound 138, 2-(5-tert-Butyl-2,4-dimethyl-2H-pyrazol-3-yl)-7-chloro-5-(2-fluoro-6-trifluoromethoxy-phenyl)-1H-benzimidazole hydrochloride]	–
